Source: ChEMBL document CHEMBL1287690, “Mycoepoxydiene, a fungal polyketide, induces cell cycle arrest at the G2/M phase and apoptosis in HeLa cells” (Bioorg Med Chem Lett, 2010)
Active and inactive are the calls of the source. The rule behind the calls is not given here.

Key:
HeLa [1] = test: Induction of apoptosis in human HeLa cells assessed as reduction in expression of Cdc2 at 14 to 21 uM by immunoblot assay; assay type: functional, cell-based; details: TDE = time-dependent effect
HeLa [2] = test: Induction of apoptosis in human HeLa cells assessed as reduction in expression of WEE1 after 12 hrs by immunoblot assay; assay type: functional, cell-based
MDA-MB-231 = test: Growth inhibition in human MDA-MB-231 cells after 72 hrs by MTT assay; assay type: functional, cell-based
HeLa [3] = test: Induction of p38 expression in human HeLa cells at 21 uM after 8 hrs by Western blotting; assay type: functional, cell-based
MCF7 = test: Growth inhibition in human MCF7 cells after 72 hrs by MTT assay; assay type: functional, cell-based
MDA-MB-435 = test: Growth inhibition in human MDA-MB-435 cells after 72 hrs by MTT assay; assay type: functional, cell-based
HeLa [4] = test: Induction of apoptosis in human HeLa cells assessed as reduction in expression of chk2 at 14 to 21 uM by immunoblot assay; assay type: functional, cell-based; details: TDE = time-dependent effect
KB = test: Cytotoxicity against human KB cells by MTT assay; assay type: functional, cell-based
HeLa [5] = test: Induction of apoptosis in human HeLa cells assessed as reduction in expression of GADD45alpha after 12 hrs by immunoblot assay; assay type: functional, cell-based
HeLa [6] = test: Induction of apoptosis in human HeLa cells assessed as reduction in expression of Myt1 after 12 hrs by immunoblot assay; assay type: functional, cell-based
[7] = target: c-Jun N-terminal kinase, JNK (Homo sapiens) (UniProt P45983+P53779+P45984); test: Induction of JNK phosphorylation at Thr183/Tyr185 in human HeLa cells at 21 uM after 30 mins by Western blotting; assay type: cell-based
HeLa [8] = test: Induction of JNK expression in human HeLa cells at 21 uM after 8 hrs by Western blotting; assay type: functional, cell-based
HeLa [9] = test: Induction of apoptosis in human HeLa cells assessed as increase in actin stress fiber formation across cell body at 14 to 21 uM by phase contrast microscopic analysis; assay type: functional, cell-based; details: TDE = time-dependent effect
HeLa [10] = test: Cell cycle arrest in human HeLa cells assessed as accumulation at G2/M phase at 21 uM after 36 hrs using propidium iodide staining by flow cytometry relative to control; assay type: functional
HeLa [11] = test: Induction of apoptosis in human HeLa cells assessed as increase in cytochrome C in cytoplasm at 21 uM after 20 hrs by Western blotting; assay type: functional, cell-based
HeLa [12] = test: Cell cycle arrest in human HeLa cells assessed as accumulation at sub-G1 phase at 21 uM after 36 hrs using propidium iodide staining by flow cytometry relative to control; assay type: functional
HeLa [13] = test: Induction of apoptosis in human HeLa cells assessed as reduction in expression of chk1 at 14 to 21 uM by immunoblot assay; assay type: functional, cell-based; details: TDE = time-dependent effect
HeLa [14] = test: Cell cycle arrest in human HeLa cells assessed as accumulation at G2/M phase at 14 uM after 36 hrs using propidium iodide staining by flow cytometry relative to control; assay type: functional
HeLa [15] = test: Induction of apoptosis in human HeLa cells assessed as increase in PARP cleavage at 21 uM after 12 to 28 hrs by Western blotting; assay type: functional, cell-based
A549 = test: Growth inhibition in human A549 cells after 72 hrs by MTT assay; assay type: functional, cell-based
HT-29 = test: Growth inhibition in human HT-29 cells after 72 hrs by MTT assay; assay type: functional, cell-based
HeLa [16] = test: Growth inhibition in human HeLa cells after 72 hrs by MTT assay; assay type: functional, cell-based
HeLa [17] = test: Cell cycle arrest in human HeLa cells assessed as accumulation at G2/M phase at 21 uM after 12 hrs using propidium iodide staining by flow cytometry relative to control; assay type: functional
HeLa [18] = test: Induction of apoptosis in human HeLa cells assessed as increase of dead cells at 12 uM using propidium iodide staining by flow cytometry; assay type: functional, cell-based; details: TDE = time-dependent effect
[19] = target: MAP kinase p38 (Homo sapiens) (UniProt O15264+Q15759+Q16539+P53778); test: Induction of p38 phosphorylation at Thr180/Tyr182 in human HeLa cells assessed at 21 uM after 30 mins by Western blotting; assay type: cell-based
HeLa [20] = test: Induction of apoptosis in human HeLa cells assessed as disruption of tubulin cytoskeleton at 14 to 21 uM by phase contrast microscopic analysis; assay type: functional, cell-based
HeLa [21] = test: Cell cycle arrest in human HeLa cells assessed as accumulation at G2/M phase at 14 uM after 12 hrs using propidium iodide staining by flow cytometry relative to control; assay type: functional
HeLa [22] = test: Cytotoxicity against human HeLa cells after 72 hrs by MTT assay; assay type: functional, cell-based
HeLa [23] = test: Induction of apoptosis in human HeLa cells assessed as increase in production of cyclin B1 at 14 to 21 uM after 12 hrs by immunoblot assay; assay type: functional, cell-based
AGS = test: Growth inhibition in human AGS cells after 72 hrs by MTT assay; assay type: functional, cell-based
HeLa [24] = test: Induction of apoptosis in human HeLa cells assessed as reduction in expression of WEE1 at 14 to 21 uM by immunoblot assay; assay type: functional, cell-based; details: TDE = time-dependent effect
HeLa [25] = test: Induction of apoptosis in human HeLa cells assessed as morphological changes at 14 to 21 uM after 9 hrs by phase contrast microscopic analysis; assay type: functional, cell-based
HeLa [26] = test: Induction of apoptosis in human HeLa cells assessed as increase in cleavage fragments of p17 and p12 at 21 uM after 12 to 28 hrs by Western blotting; assay type: functional, cell-based
OVCAR-3 = test: Growth inhibition in human OVCAR-3 cells after 72 hrs by MTT assay; assay type: functional, cell-based
HeLa [27] = test: Induction of apoptosis in human HeLa cells assessed as reduction in expression of GADD45alpha at 14 to 21 uM by immunoblot assay; assay type: functional, cell-based; details: TDE = time-dependent effect
HeLa [28] = test: Induction of apoptosis in human HeLa cells assessed as increase of dead cells after 24 hrs using propidium iodide staining by flow cytometry; assay type: functional, cell-based
HeLa [29] = test: Induction of apoptosis in human HeLa cells assessed as reduction in expression of p34 after 12 hrs by immunoblot assay; assay type: functional, cell-based
HeLa [30] = test: Induction of apoptosis in human HeLa cells assessed as reduction in expression of p34 at 14 to 21 uM by immunoblot assay; assay type: functional, cell-based; details: TDE = time-dependent effect
HeLa [31] = test: Induction of apoptosis in human HeLa cells assessed as reduction in expression of Myt1 at 14 to 21 uM by immunoblot assay; assay type: functional, cell-based; details: TDE = time-dependent effect
HeLa [32] = test: Induction of apoptosis in human HeLa cells assessed as increase of dead cells at 11 uM using propidium iodide staining by flow cytometry; assay type: functional, cell-based; details: TDE = time-dependent effect
HeLa [33] = test: Induction of apoptosis in human HeLa cells assessed as reduction in expression of Cdc2 after 12 hrs by immunoblot assay; assay type: functional, cell-based
HeLa [34] = test: Induction of apoptosis in human HeLa cells assessed as increase in actin stress fiber formation across cell body after 12 hrs by phase contrast microscopic analysis; assay type: functional, cell-based; details: TDE = time-dependent effect
DU-145 = test: Growth inhibition in human DU145 cells after 72 hrs by MTT assay; assay type: functional, cell-based
HeLa [35] = test: Induction of apoptosis in human HeLa cells assessed as cell death in presence of 25 uM of […] z-VAD-fmk; assay type: functional, cell-based
U2OS = test: Growth inhibition in human U2OS cells after 72 hrs by MTT assay; assay type: functional, cell-based
HeLa [36] = test: Induction of apoptosis in human HeLa cells assessed cell death up to 20 uM after 48 hrs using propidium iodide staining by flow cytometry in presence of JNK inhibitor 2 treated 1 hr before compound challenge; assay type: functional, cell-based
HeLa [37] = test: Cell cycle arrest in human HeLa cells assessed as accumulation at sub-G1 phase at 14 uM after 36 hrs using propidium iodide staining by flow cytometry relative to control; assay type: functional
HeLa [38] = test: Induction of apoptosis in human HeLa cells assessed as reduction in expression of chk1 after 12 hrs by immunoblot assay; assay type: functional, cell-based
HeLa [39] = test: Induction of apoptosis in human HeLa cells assessed as increase in caspase-3 cleavage at 21 uM after 12 to 28 hrs by Western blotting in presence of z-VAD-fmk; assay type: functional, cell-based
HeLa [40] = test: Induction of apoptosis in human HeLa cells assessed as increase in production of p21 at 14 to 21 uM after 12 hrs by immunoblot assay; assay type: functional, cell-based
HeLa [41] = test: Induction of apoptosis in human HeLa cells assessed cell death up to 20 uM after 48 hrs using propidium iodide staining by flow cytometry in presence of SB-203580 treated 1 hr before compound challenge; assay type: functional, cell-based
HeLa [42] = test: Induction of apoptosis in human HeLa cells assessed as reduction in expression of chk2 after 12 hrs by immunoblot assay; assay type: functional, cell-based

For `CC(=O)O[C@H]1C=CC(=O)O[C@H]1[C@@H]1[C@H](C)[C@H]2C=CC=C[C@@H]1O2` [MYCOEPOXYDIENE], the Activity (HeLa [1]) was “tde”, the Activity (HeLa [2]) was “Dose-dependent effect” and the “growth inhibition (GI)” value (MDA-MB-231) was “Active”. For the same compound, the Activity (HeLa [3]) was “inactive”, the “growth inhibition (GI)” value (MCF7) was “Active” and the “growth inhibition (GI)” value (MDA-MB-435) was “Active”. The Activity (HeLa [4]) was “tde”, the IC50 (KB) was under 21.5 µM and the Activity (HeLa [5]) was “Dose-dependent effect”. For the same compound, the Activity (HeLa [6]) was “Dose-dependent effect”, the Activity [7] was “Active” and the Activity (HeLa [8]) was “inactive”. For the same compound, the Activity (HeLa [9]) was “tde”, the Activity (HeLa [10]) was 31.3% and the Activity (HeLa [11]) was “Active”. The Activity (HeLa [12]) was 23.3%, the Activity (HeLa [13]) was “tde” and the Activity (HeLa [14]) was 31.4%. The Activity (HeLa [15]) was “Active”, the “growth inhibition (GI)” value (A549) was “Active” and the “growth inhibition (GI)” value (HT-29) was “Active”. The “growth inhibition (GI)” value (HeLa [16]) was “Active”, the Activity (HeLa [17]) was 47.5% and the Activity (HeLa [18]) was “tde”. The Activity [19] was “Active”, the Activity (HeLa [20]) was “Dose-dependent effect” and the Activity (HeLa [21]) was 40.9%. For the same compound, the IC50 (HeLa [22]) was 16.8 µM, the Activity (HeLa [23]) was “Active” and the “growth inhibition (GI)” value (AGS) was “Active”. For the same compound, the Activity (HeLa [24]) was “tde”, the Activity (HeLa [25]) was “Active” and the Activity (HeLa [26]) was “Active”. The “growth inhibition (GI)” value (OVCAR-3) was “Active”, the Activity (HeLa [27]) was “tde” and the Activity (HeLa [28]) was “Dose-dependent effect”. For the same compound, the Activity (HeLa [29]) was “Dose-dependent effect”, the Activity (HeLa [30]) was “tde” and the Activity (HeLa [31]) was “tde”. For the same compound, the Activity (HeLa [32]) was “tde”, the Activity (HeLa [33]) was “Dose-dependent effect” and the Activity (HeLa [34]) was “tde”. The “growth inhibition (GI)” value (DU-145) was “Active”, the Activity (HeLa [35]) was “inactive” and the “growth inhibition (GI)” value (U2OS) was “Active”. For the same compound, the Activity (HeLa [36]) was “Active”, the Activity (HeLa [37]) was 4.8% and the Activity (HeLa [38]) was “Dose-dependent effect”. The Activity (HeLa [39]) was “inactive”, the Activity (HeLa [40]) was “Active” and the Activity (HeLa [41]) was “Active”. The Activity (HeLa [42]) was “Dose-dependent effect”.
